Data from patent US8435562B2 (XenoPort, Inc., priority 2009, dated 2013).

Test: Powder X-ray diffraction analysis of anhydrous-to-hydrate form conversion (granules, tablets)
Type: physicochemical
Procedure: Anhydrous (2R)-2-phenylcarbonyloxypropyl (2S)-2-amino-3-(3,4-dihydroxyphenyl)propanoate mesylate (138.6 g) and hydroxypropylmethyl cellulose (1.4 g) (Methocer HPMC E4M, Dow Chemical) were weighed and sieved through an 18-mesh screen. The screened materials were placed into a high shear wet granulator (KG-5 high sheer blender, 5 L bowl, Key International) and pre-blended for 2 min. […] The material was blended for ca. 10-20 min at an impeller speed of 250 rpm and a chopper speed of 2,000 rpm, and a water spray rate of 2 g/min. After granulation the wet granules were milled through a 16-mesh screen with a brush. The milled wet granules were placed in a dryer (UniGlatt Fluid Bed Dryer, Glatt GmbH) and dried for 24 min at an inlet temperature of 65° C. with airflow adjusted at 8-10 SCFM. The dried granules were milled by manually pressing the granules through a screen.
Powder X-ray diffraction (PXRD) analysis was performed using a PANalytical X′Pert Pro X-ray diffractometer. The X-ray source was Cu kα1 with output voltage of 45 kV and current of 40 mA. The instrument employed para-focusing Bragg-Brentano geometry with incident divergence and scattering slits set at 1/16° and ⅛°, respectively. Soller slits with a 0.04-mm radius were used for both the incident and diffracted beams to remove axial divergence. Powder samples (9-12 mg) were gently pressed onto a single crystal silicon sample holder to form a smooth surface, and samples were spun at 8 sec/revolution throughout the data acquisition process. The samples were scanned from 2° to 40°(2θ°) with a step size of 0.017° (2θ angle) and a scan speed of 0.067°/sec. Data acquisition was controlled and analyzed with X′Pert Data Collector Software (version 2.2d) and X′Pert Data Viewer (version 1.2c), respectively.

Crystal form by PXRD after high shear wet granulation (with 1% sodium lauryl sulfate): did not transform to the hydrate
Crystal form by PXRD after high shear wet granulation (without sodium lauryl sulfate, water content of 9 wt-% and 15 wt-% (FIG. 3 patterns B and C)): characteristic of the hydrated form
Compound: CS(=O)(=O)O.C[C@H](COC(=O)[C@@H](N)Cc1ccc(O)c(O)c1)OC(=O)c1ccccc1 [compound 1, (2R)-2-Phenylcarbonyloxypropyl (2S)-2-amino-3-(3,4-dihydroxyphenyl)propanoate mesylate]
Crystal form by PXRD after high shear wet granulation (without sodium lauryl sulfate, 7 wt-% water): a combination of the anhydrous and hydrated forms
Crystal form by PXRD after high shear wet granulation (without sodium lauryl sulfate, 15 wt-% water): predominantly crystalline (2R)-2-phenylcarbonyloxypropyl (2S)-2-amino-3-(3,4-dihydroxyphenyl)propanoate mesylate, hydrate
